The test system of one test is S. aureus HH 127. Briefly: MIC in vitro (Table 1), S. aureus HH 127. In kind it is cell-based. To be noted: Staphylococcus aureus. An excerpt:
(§1) Compound names corresponding to numbers are given in the experimental section. For comparative purposes, data for cephamandole, which is 7-mandelamido-3-(1-methyltetrazol-5-ylthiomethyl)-3-cephem-4-carboxylic acid, is also given in Tables 1 and 2.

Another test relates to S. aureus SK 23390. The test is described as follows: MIC in vitro (Table 1), S. aureus SK 23390. The format is cell-based. The conditions noted are these: Staphylococcus aureus.
Text: as §1

The next test deals with Strep. Faecalis HH 34358. The test is described as follows: MIC in vitro (Table 1), Strep. Faecalis HH 34358. To be noted: in vitro, Strep. Faecalis HH 34358. The format is cell-based.
Text: as §1

For a further test, the system named is E. coli SK 12140. Briefly: MIC in vitro (Table 1), E. coli SK 12140. In kind it is cell-based. The conditions noted are these: Escherichia coli, SK12140, in vitro.
Text: as §1

Another test has as its system E. coli HH 33779. Briefly: MIC in vitro (Table 1), E. coli HH 33779. In kind it is cell-based. To be noted: Escherichia coli.
Text: as §1

The next test concerns Kleb. pneumo. SK 4200. The test is described as follows: MIC in vitro (Table 1), Kleb. pneumo. SK 4200. In kind it is cell-based.
Text: as §1

A further test deals with Kleb. pneumo. SK 1200. Briefly: MIC in vitro (Table 1), Kleb. pneumo. SK 1200. In kind it is cell-based.
Text: as §1

For another test, the system named is Pseudo. sp. HH 63. The test is described as follows: MIC in vitro (Table 1), Pseudo. sp. HH 63. To be noted: in vitro, Pseudo. sp. HH 63; read-out: MIC. In kind it is cell-based. An excerpt:
(§2) The compounds of Formula I have antibacterial activity against both Gram-positive and Gram-negative organisms. […] Compound names corresponding to numbers are given in the experimental section. For comparative purposes, data for cephamandole, which is 7-mandelamido-3-(1-methyltetrazol-5-ylthiomethyl)-3-cephem-4-carboxylic acid, is also given in Tables 1 and 2.

The subject of the next test is Salmonella ATCC 12176. Briefly: MIC in vitro (Table 1), Salmonella ATCC 12176. The format is cell-based.
Text: as §2

The subject of the next test is Shigella HH 117. The test is described as follows: MIC in vitro (Table 1), Shigella HH 117. In kind it is cell-based.
Text: as §2

Test [1] concerns Entero. aerog. ATCC 13048. Briefly: MIC in vitro (Table 1), Entero. aerog. ATCC 13048. In kind it is cell-based.
Text: as §1

Another test deals with Serra. Marc. ATCC 13880. Briefly: MIC in vitro (Table 1), Serra. Marc. ATCC 13880. The format is cell-based.
Text: as §1

The next test has as its system Entero. cloacae HH 31254. The test is described as follows: MIC in vitro (Table 1), Entero. cloacae HH 31254. In kind it is cell-based. To be noted: Enterobacter cloacae.
Text: as §1

In another test the test system is Proteus morgani 179. Briefly: MIC in vitro (Table 1), Proteus morgani 179. In kind it is cell-based.
Text: as §1

The next test concerns Kleb. pneumo. 4200. Briefly: In vivo mouse protection (Table 2), Kleb. pneumo. 4200.
Text: as §1

For another test, the system named is E. coli 12140. The test is described as follows: In vivo mouse protection (Table 2), E. coli 12140.
Text: as §1

The mark [2] stands for this setting: HH127, in vitro, S. aureus HH 127, read-out: MIC.
Setting [3] is: SK23390, in vitro, S. aureus SK 23390, read-out: MIC.
The mark [4] stands for this setting: Enterococcus faecalis, read-out: MIC.
Where [5] appears, read: HH33779, in vitro, E. coli HH 33779, read-out: MIC.
[6] abbreviates: in vitro, Kleb. pneumo. SK 4200, read-out: MIC.
Where [7] appears, read: Salmonella, ATCC12176, in vitro, read-out: MIC.
Where [8] appears, read: Shigella, HH117, in vitro, read-out: MIC.
Setting [9] is: in vitro, Entero. aerog. ATCC 13048, read-out: MIC.
Where [10] appears, read: in vitro, Serra. Marc. ATCC 13880, read-out: MIC.
[11] abbreviates: HH31254, in vitro, Entero. cloacae HH 31254, read-out: MIC.
Where [12] appears, read: Escherichia coli, 12140, po, E. coli 12140, p.o.
Setting [13] is: Escherichia coli, 12140, sc, E. coli 12140, s.c.

Structures are written as SMILES. Values after ≈ are worked out from the molar mass of the structure shown. Read-outs that look alike come from different tables or passages of the source.

By MIC is commonly meant the lowest concentration found to suppress growth. As usually defined, the ED50 is the dose that gives a 50% effect, or the effect in half of the subjects. For the compound `N[C@@H](C(=O)NC1C(=O)N2C(C(=O)O)=C(CSc3nnnn3CC(=O)O)CS[C@H]12)c1ccc(O)cc1` (stereo partly drawn) [II, 7-(D-α-Amino-4-hydroxyphenylacetamido)-3-(1-carboxymethyl-tetrazol-5-ylthiomethyl)-3-cephem-4-carboxylic acid], the minimal inhibitory concentration (MIC) with S. aureus HH 127 (setting [2]) was 12.5 µg/mL (≈ 24 µM); in the test on S. aureus SK 23390 (setting [3]), 12.5 µg/mL (≈ 24 µM); in the test on Strep. Faecalis HH 34358 (setting [4]), 100 µg/mL (≈ 192 µM); in the test on E. coli SK 12140 (read-out: MIC) it was 3.1 µg/mL (≈ 5.94 µM); with E. coli HH 33779 (setting [5]) it was 12.5 µg/mL (≈ 24 µM); in the test with Kleb. pneumo. SK 4200 (setting [6]), 1.6 µg/mL (≈ 3.07 µM). Further, the MIC with Kleb. pneumo. SK 1200 is 6.3 µg/mL (≈ 12.1 µM); in the test on Pseudo. sp. HH 63 it was above 200 µg/mL; in the test on Salmonella ATCC 12176 (setting [7]), 1.6 µg/mL (≈ 3.07 µM); in the test with Shigella HH 117 (setting [8]), 6.3 µg/mL (≈ 12.1 µM); in test [1] (setting [9]), 25 µg/mL (≈ 47.9 µM); in the test on Serra. Marc. ATCC 13880 (setting [10]) it was above 200 µg/mL. Also, the figures for the MIC with Entero. cloacae HH 31254 (setting [11]) and in the test with Proteus morgani 179 (read-out: MIC) were 1.6 µg/mL (≈ 3.07 µM) and above 200 µg/mL, respectively. The compound also returned an ED50 with Kleb. pneumo. 4200 (po, Kleb. pneumo. 4200, p.o.) of 13.2 mg/kg.

Regarding `O=C(O)Cn1nnnc1SCC1=C(C(=O)O)N2C(=O)C(NC(=O)[C@H](O)c3ccccc3)[C@H]2SC1` (stereo partly drawn) [I, 7-D-Mandelamido-3-(1-carboxymethyltetrazol-5-ylthiomethyl)-3-cephem-4-carboxylic acid], the MIC worked out at 6.3 µg/mL (≈ 12.4 µM) with S. aureus HH 127 (HH127); 1.6 µg/mL (≈ 3.16 µM) against S. aureus SK 23390 (SK23390); 3.1 µg/mL (≈ 6.12 µM) in the test on S. aureus SK 23390 (setting [3]); 100 µg/mL (≈ 197 µM) in the test on Strep. Faecalis HH 34358 (setting [4]); 1.6 µg/mL (≈ 3.16 µM) in the test on E. coli SK 12140; 1.6 µg/mL (≈ 3.16 µM) against E. coli HH 33779 (HH33779). Further, the MIC in the test with E. coli HH 33779 (setting [5]) was 6.3 µg/mL (≈ 12.4 µM); in the test on Kleb. pneumo. SK 4200, 1.6 µg/mL (≈ 3.16 µM); in the test on Kleb. pneumo. SK 4200 (setting [6]), 0.8 µg/mL (≈ 1.58 µM); against Kleb. pneumo. SK 1200, 1.6 µg/mL (≈ 3.16 µM); in the test on Kleb. pneumo. SK 1200 (read-out: MIC), 0.8 µg/mL (≈ 1.58 µM); with Pseudo. sp. HH 63, above 200 µg/mL. Further, the minimal inhibitory concentration (MIC) came to 1.6 µg/mL (≈ 3.16 µM) in the test with Salmonella ATCC 12176 (setting [7]); 0.8 µg/mL (≈ 1.58 µM) in the test on Salmonella ATCC 12176 (in vitro); 1.6 µg/mL (≈ 3.16 µM) with Shigella HH 117 (setting [8]); 0.8 µg/mL (≈ 1.58 µM) with Shigella HH 117 (in vitro); 12.5 µg/mL (≈ 24.7 µM) in test [1]; 6.3 µg/mL (≈ 12.4 µM) in [1] (setting [9]). The minimum inhibitory concentration (MIC) in the test on Serra. Marc. ATCC 13880 is 25 µg/mL (≈ 49.4 µM); with Serra. Marc. ATCC 13880 (setting [10]) it was 100 µg/mL (≈ 197 µM); in the test with Entero. cloacae HH 31254 (setting [11]) it was 0.8 µg/mL (≈ 1.58 µM); with Proteus morgani 179, 3.1 µg/mL (≈ 6.12 µM). For the same compound, the ED50 with E. coli 12140 (setting [12]) was 50 mg/kg; in the test on E. coli 12140 (setting [13]) it was 1.56 mg/kg; in the test with Kleb. pneumo. 4200 (po, Kleb. pneumo. 4200, p.o.), 25 mg/kg.

With `O=C(O)CCn1nnnc1SCC1=C(C(=O)O)N2C(=O)C(NC(=O)[C@H](O)c3ccccc3)[C@H]2SC1` (stereo partly drawn) [VIII, 7-D-Mandelamido-3-[1-(2-carboxyethyl)tetrazol-5-ylthiomethyl]-3-cephem-4-carboxylic acid], the MIC against S. aureus HH 127 (HH127) turned out to be 3.1 µg/mL (≈ 5.96 µM); in the test with S. aureus HH 127 (setting [2]), 1.6 µg/mL (≈ 3.07 µM); in the test on Strep. Faecalis HH 34358 (setting [4]) it was 50 µg/mL (≈ 96.1 µM); against Strep. Faecalis HH 34358, 100 µg/mL (≈ 192 µM); with E. coli SK 12140 it was 0.4 µg/mL (≈ 0.768 µM); with E. coli SK 12140 (read-out: MIC), 1.6 µg/mL (≈ 3.07 µM). Also, the MIC against Kleb. pneumo. SK 4200 (in vitro, Kleb. pneumo. SK 4200) is 1.6 µg/mL (≈ 3.07 µM); with Kleb. pneumo. SK 4200 (setting [6]) it was 0.8 µg/mL (≈ 1.54 µM); in the test with Kleb. pneumo. SK 1200, 0.8 µg/mL (≈ 1.54 µM); in the test on Kleb. pneumo. SK 1200 (read-out: MIC), 1.6 µg/mL (≈ 3.07 µM); in the test on Pseudo. sp. HH 63, above 200 µg/mL; with Salmonella ATCC 12176 (setting [7]) it was 0.8 µg/mL (≈ 1.54 µM). Besides, the MIC against Salmonella ATCC 12176 (in vitro) was determined as 0.4 µg/mL (≈ 0.768 µM); in the test on Shigella HH 117 (setting [8]) it was 0.8 µg/mL (≈ 1.54 µM); in test [1], 3.1 µg/mL (≈ 5.96 µM); against Serra. Marc. ATCC 13880 it was 12.5 µg/mL (≈ 24 µM); against Serra. Marc. ATCC 13880 (in vitro, Serra. Marc. ATCC 13880), 100 µg/mL (≈ 192 µM); in the test with Serra. Marc. ATCC 13880 (setting [10]), 50 µg/mL (≈ 96.1 µM). The MIC with Entero. cloacae HH 31254 (HH31254) is 3.1 µg/mL (≈ 5.96 µM); in the test with Proteus morgani 179 (read-out: MIC), 6.3 µg/mL (≈ 12.1 µM). Further, the 50% effective dose (ED50) is 50 mg/kg in the test with E. coli 12140 (setting [12]); 0.86 mg/kg in the test with E. coli 12140 (setting [13]); 25 mg/kg in the test on Kleb. pneumo. 4200 (po, Kleb. pneumo. 4200, p.o.); 0.46 mg/kg in the test on Kleb. pneumo. 4200 (sc, Kleb. pneumo. 4200, s.c.).

As to `CNC(=O)Cn1nnnc1SCC1=C(C(=O)O)N2C(=O)C(NC(=O)[C@H](O)c3ccccc3)[C@H]2SC1` (stereo partly drawn) [III, 7-D-Mandelamido-3-(1-N-methylcarbamoylmethyltetrazol-5-ylthiomethyl)-3-cephem-4-carboxylic acid], the minimal inhibitory concentration (MIC) came out at 1.6 µg/mL (≈ 3.08 µM) with S. aureus HH 127 (setting [2]); 3.1 µg/mL (≈ 5.97 µM) in the test with S. aureus SK 23390 (SK23390); 25 µg/mL (≈ 48.1 µM) in the test on Strep. Faecalis HH 34358 (setting [4]); 3.1 µg/mL (≈ 5.97 µM) against E. coli SK 12140; 3.1 µg/mL (≈ 5.97 µM) with E. coli HH 33779 (HH33779); 3.1 µg/mL (≈ 5.97 µM) against Kleb. pneumo. SK 4200. Further, the MIC with Kleb. pneumo. SK 1200 is 3.1 µg/mL (≈ 5.97 µM); in the test with Pseudo. sp. HH 63, above 200 µg/mL; in the test on Salmonella ATCC 12176 (setting [7]) it was 0.8 µg/mL (≈ 1.54 µM); in the test on Shigella HH 117 (setting [8]) it was 3.1 µg/mL (≈ 5.97 µM); in test [1], 3.1 µg/mL (≈ 5.97 µM); in the test on Serra. Marc. ATCC 13880 (setting [10]), 25 µg/mL (≈ 48.1 µM). The MIC in the test on Entero. cloacae HH 31254 (HH31254) and in the test on Proteus morgani 179 was 3.1 µg/mL (≈ 5.97 µM) throughout. In addition, the ED50 is 34 mg/kg in the test with E. coli 12140 (setting [12]); 1.56 mg/kg in the test with E. coli 12140 (setting [13]); above 50 mg/kg in the test with Kleb. pneumo. 4200 (po, Kleb. pneumo. 4200, p.o.); 2.8 mg/kg with Kleb. pneumo. 4200 (sc, Kleb. pneumo. 4200, s.c.).

The record behind these values is US4220644A, “7-Acylamino-3-(substituted tetrazolyl thiomethyl) cephalosporins” (SmithKline Corporation, priority 1976, dated 1980).
